Holding throughout (assay type): cell-based
One assay has as its system Murine Swiss 3T3 cells. In words: IL-1 stimulated prostaglandin E2 synthesis, murine fibroblasts. The following applies: oligonucleotides 30 μm for 48 hours, then IL-1β 10 μ/ml for 6 hours, control 60. On the procedure:
(§1) 1. IL-1 stimulated prostaglandin E2 synthesis.
(§2) Effects of expression of IL-1 receptors by murine and human fibroblasts were assessed as follows Murine Swiss 3T3 cells (American Type Culture Collection ATCC CCL 92) or human dermal fibroblasts (primary culture) were grown in 96-well plates in Dulbecco's modified Eagles medium containing either 10% calf serum or 10% fetal bovine serum, respectively (Grand Island Biological Company), to confluency. The culture medium was replaced with identical medium except that the serum had been heat-inactivated at 65° C. for 15 minutes to inactivate nucleases. Oligonucleotides (30 μm) were added to the cultures and incubated for 48 hours. […] Oligonucleotides (phosphorothioates) S0-1, S0-2 and S0-3 are antisense to murine IL-1 receptor DNA and S0-6 is antisense to human IL-1 receptor DNA.

Assay [1] concerns human dermal fibroblasts. In words: Liposome delivery, IL-1 stimulated PGE2 in human dermal fibroblasts. The following applies: liposomes; S0-6 30 μM; IL-1 10 U/ml for 4 hours; control (empty liposome) 65.
Method: For the experiment human dermal fibroblasts were incubated for 18 hours with IL-1, 100 u/ml., to down-regulate existing receptors. The cells were then rinsed three times with phosphate-buffered saline containing 2 mM calcium and 0.1 mM magnesium to remove IL-1, then incubated 30 minutes. Liposomes were then added and the mixture was incubated for 30 minutes. Finally, polyethylene glycol (M.W.6000) was added for 1 minute, then the cultures were rinsed three times in culture medium. Cultures were incubated for eight hours, then stimulated with IL-1, 10 U/ml for 4 hours. Media were collected for radioimmunoassy of PGE2.
Assay [2] has as its system human dermal fibroblasts. As to the kind of experiment: IL-1 stimulated prostaglandin E2 synthesis, human fibroblasts. The following applies: Human cells; oligonucleotides 30 μm for 48 hours, then IL-1β 10 μ/ml for 6 hours; control 25. How it is done: as §1, §2

For “IL-1: cytokine interleukin 1, used as stimulus of prostaglandin E2 synthesis”, the “PGE2, pg/well” value in the assay on Murine Swiss 3T3 cells is 375 pg/well; with human dermal fibroblasts [1], 398 pg/well; with human dermal fibroblasts [2], 285 pg/well.

Source of the values: patent US5135917A, “Interleukin receptor expression inhibiting antisense oligonucleotides” (Nova Pharmaceutical Corporation, priority 1990, dated 1992).
